Data on 6 compounds can be found in publication PMC4683934, “Effect of an ethanol extract of Descurainia sophia seeds on Phase I and II drug metabolizing enzymes and P-glycoprotein activity in vitro” (BMC Complementary and Alternative Medicine, 2015).

The target in one data set is T1, UGT1A1 (Homo sapiens, UniProt P22309).
T1 construct: purchased Promega V2120
T1 sequence (P22309 26-533): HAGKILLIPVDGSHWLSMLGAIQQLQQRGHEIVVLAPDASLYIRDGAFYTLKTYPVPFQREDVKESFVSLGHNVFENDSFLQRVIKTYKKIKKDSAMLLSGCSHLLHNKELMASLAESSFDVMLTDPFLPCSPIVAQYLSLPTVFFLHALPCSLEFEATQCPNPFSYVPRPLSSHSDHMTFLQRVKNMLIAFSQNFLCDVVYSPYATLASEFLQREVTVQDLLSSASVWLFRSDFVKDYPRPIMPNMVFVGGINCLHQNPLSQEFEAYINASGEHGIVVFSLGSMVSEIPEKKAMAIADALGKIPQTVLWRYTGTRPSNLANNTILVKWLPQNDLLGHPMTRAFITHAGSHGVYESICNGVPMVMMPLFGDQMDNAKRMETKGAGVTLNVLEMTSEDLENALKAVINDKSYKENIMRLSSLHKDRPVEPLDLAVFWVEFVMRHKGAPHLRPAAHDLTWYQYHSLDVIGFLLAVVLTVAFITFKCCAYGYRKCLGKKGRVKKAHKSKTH
Description: Luminogenic UGT1A1 inhibition assay. Format: biochemical. The settings on record: specific inhibitor positive control, means ± S.D., read-out: IC50 Inhibitors. An excerpt:
In vitro enzymatic inhibition assays of human Phase I (CYPs) and Phase II (UGTs) DME, and P-gp were done with commercially available luminogenic assay systems. The assay systems were purchased from Promega (Madison, WI, USA), and the microsomes containing the recombinant human CYPs were purchased from Life Technologies (Carlsbad, CA, USA). The microsomes containing human UGT and P-gp were supplied in the luminogenic assay systems (Promega). […]. […]. The enzyme reaction was done according to the manufacturer’s instructions. The luminescent intensity, which is correlated with the enzyme activity, was quantified with a TriStar LB 941 multimode microplate reader (Berthold Technologies, Bad Wildbad, Germany). […]

The target in data set [1] is T2, P-gp (Homo sapiens, UniProt P08183).
T2 construct: purchased Promega V3601
Description: Luminogenic P-gp (ATPase) inhibition assay. Format: biochemical. The settings on record: specific inhibitor positive control, means ± S.D., read-out: IC50 Inhibitors. An excerpt:
In vitro enzymatic inhibition assays of human Phase I (CYPs) and Phase II (UGTs) DME, and P-gp were done with commercially available luminogenic assay systems. The assay systems were purchased from Promega (Madison, WI, USA), and the microsomes containing the recombinant human CYPs were purchased from Life Technologies (Carlsbad, CA, USA). The microsomes containing human UGT and P-gp were supplied in the luminogenic assay systems (Promega). […] The enzyme reaction was done according to the manufacturer’s instructions.

The next data set deals with CYP2C. The settings on record: competitive inhibitor; cited from earlier work.
Data set [2] has as its system LPS-stimulated RAW264.7 cells. On the set-up: method as in PMID 23435946, PMID 23935669. The note with it: cited from earlier work.
The next data set concerns human UGT2B17. Also noted: method as in PMID 22958586. The note with it: cited from earlier work.
A further data set has as its system UGT1A3. Also noted: method as in PMID 23339253. The note with it: cited from earlier work.
Data set [3] addresses T2, P-gp. On the set-up: method as in PMID 17256728. The note with it: adriamycin-resisitant human breast cancer cells, MCF-7/ADR; cited from earlier work.

T2 sequence (P08183 whole entry): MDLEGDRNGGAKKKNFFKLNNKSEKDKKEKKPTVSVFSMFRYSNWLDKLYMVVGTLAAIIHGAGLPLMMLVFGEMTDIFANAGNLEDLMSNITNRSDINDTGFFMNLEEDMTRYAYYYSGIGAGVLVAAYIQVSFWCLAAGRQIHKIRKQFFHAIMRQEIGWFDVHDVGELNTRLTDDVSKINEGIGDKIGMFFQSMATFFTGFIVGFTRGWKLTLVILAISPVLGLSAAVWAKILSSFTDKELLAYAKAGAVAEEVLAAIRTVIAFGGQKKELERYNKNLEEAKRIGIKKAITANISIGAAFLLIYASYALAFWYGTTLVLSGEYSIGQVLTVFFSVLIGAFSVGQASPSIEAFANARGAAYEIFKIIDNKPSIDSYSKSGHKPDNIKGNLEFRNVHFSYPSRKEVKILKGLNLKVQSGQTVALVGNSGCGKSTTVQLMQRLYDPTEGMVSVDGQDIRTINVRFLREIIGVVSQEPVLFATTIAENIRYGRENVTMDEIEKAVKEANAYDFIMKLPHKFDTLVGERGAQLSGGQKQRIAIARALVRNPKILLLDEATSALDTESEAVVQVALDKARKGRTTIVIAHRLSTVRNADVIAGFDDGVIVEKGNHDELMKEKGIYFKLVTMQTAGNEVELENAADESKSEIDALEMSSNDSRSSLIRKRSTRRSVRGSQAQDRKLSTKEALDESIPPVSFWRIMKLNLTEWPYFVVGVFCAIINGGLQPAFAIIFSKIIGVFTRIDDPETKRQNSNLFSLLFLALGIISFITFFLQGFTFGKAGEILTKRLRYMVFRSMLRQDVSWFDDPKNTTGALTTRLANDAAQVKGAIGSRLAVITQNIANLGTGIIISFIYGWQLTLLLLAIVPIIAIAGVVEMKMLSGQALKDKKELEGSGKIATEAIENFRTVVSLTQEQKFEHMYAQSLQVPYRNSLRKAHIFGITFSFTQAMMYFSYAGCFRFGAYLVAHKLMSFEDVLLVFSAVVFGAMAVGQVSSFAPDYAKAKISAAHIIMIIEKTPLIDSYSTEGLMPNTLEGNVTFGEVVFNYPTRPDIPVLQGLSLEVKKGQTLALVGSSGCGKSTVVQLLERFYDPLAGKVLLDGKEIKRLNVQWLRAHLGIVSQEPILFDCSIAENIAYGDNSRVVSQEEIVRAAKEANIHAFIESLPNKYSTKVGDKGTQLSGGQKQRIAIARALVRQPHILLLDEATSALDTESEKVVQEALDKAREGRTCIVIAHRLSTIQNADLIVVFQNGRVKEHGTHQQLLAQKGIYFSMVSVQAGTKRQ

Take `O=C(O)Cc1ccccc1Nc1c(Cl)cccc1Cl` [Diclofenac]: on UGT1A1, the 50% inhibitory concentration (IC50) stood at 180 ± 29.6 µM.

`[Na+].[Na+].[Na+].[O]=[V]([O-])([O-])[O-]` [Na3VO4]: the IC50 at P-gp [1] was 3.4 ± 0.32 µM.

Take `O=c1c(O)c(-c2ccc(O)c(O)c2)oc2cc(O)cc(O)c12` [Quercetin]: the Ki with CYP2C is 1.67 µM. The “median effective doses (ED50), inhibition of NO production” value in data set [2] was 5.5 µM. For the same compound, in the data set on human UGT2B17, the “inhibition of human UGT2B17” value is listed as “inhibits”.

In the case of `COc1cc2c(c(OC)c1OC)-c1c(cc(OC)c(OC)c1OC)C[C@H](C)[C@H](C)C2` [deoxyschizandrin], the “inhibition of UGT1A3 isotype” value in the data set on UGT1A3 is “potently inhibit”.

On to `COc1cc([C@H]2OC[C@H]3[C@@H]2CO[C@@H]3c2cc(OC)c(O)c(OC)c2)cc(OC)c1O` [syringaresinol], for which the “inhibitory effects on P-gp” value at P-gp [3] was “exhibited inhibitory effects”. Also, in data set [2], the “median effective doses (ED50), inhibition of NO production” value was 10.0 µM.

For schisantherin A, in the data set with UGT1A3, the “inhibition of UGT1A3 isotype” value is listed as “potently inhibit”.

What is called IC50 is the concentration that gives 50% inhibition. Broadly, the Ki is a dissociation constant, usually derived from enzyme kinetics or from competition with a known ligand.
